Assay results as given in PMC5142622, “Attenuation of the Type IV Pilus Retraction Motor Influences Neisseria gonorrhoeae Social and Infection Behavior” (mBio, 2016).

Molecular target: PilT (Neisseria gonorrhoeae, UniProt Q53432)
Conditions: MgCl2 5 mM, Tris 150 mM pH 8.5, NaCl 150 mM, 37 °C; variable ATP, 10 min

Sequence of PilT (Q53432 entry or part of it): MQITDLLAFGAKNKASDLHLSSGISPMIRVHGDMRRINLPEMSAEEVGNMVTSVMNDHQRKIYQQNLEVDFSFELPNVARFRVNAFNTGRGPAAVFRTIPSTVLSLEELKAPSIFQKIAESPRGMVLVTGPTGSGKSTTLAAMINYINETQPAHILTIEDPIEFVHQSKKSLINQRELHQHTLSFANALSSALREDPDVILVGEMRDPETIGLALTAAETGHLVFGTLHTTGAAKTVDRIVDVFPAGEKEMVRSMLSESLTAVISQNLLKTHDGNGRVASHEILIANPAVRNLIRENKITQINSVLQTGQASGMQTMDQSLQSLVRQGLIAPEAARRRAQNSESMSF

Question: How did the Km turn out when Nc1ncnc2c1ncn2[C@@H]1O[C@H](COP(=O)(O)OP(=O)(O)OP(=O)(O)O)[C@@H](O)[C@H]1O [ATP] was run?
Answer: 0.38 nmol
